Molecules are shown by their SMILES. Structures can show the parent of a compound that is named as a salt.

T1 sequence (P51531 whole entry, the tested form may be a part): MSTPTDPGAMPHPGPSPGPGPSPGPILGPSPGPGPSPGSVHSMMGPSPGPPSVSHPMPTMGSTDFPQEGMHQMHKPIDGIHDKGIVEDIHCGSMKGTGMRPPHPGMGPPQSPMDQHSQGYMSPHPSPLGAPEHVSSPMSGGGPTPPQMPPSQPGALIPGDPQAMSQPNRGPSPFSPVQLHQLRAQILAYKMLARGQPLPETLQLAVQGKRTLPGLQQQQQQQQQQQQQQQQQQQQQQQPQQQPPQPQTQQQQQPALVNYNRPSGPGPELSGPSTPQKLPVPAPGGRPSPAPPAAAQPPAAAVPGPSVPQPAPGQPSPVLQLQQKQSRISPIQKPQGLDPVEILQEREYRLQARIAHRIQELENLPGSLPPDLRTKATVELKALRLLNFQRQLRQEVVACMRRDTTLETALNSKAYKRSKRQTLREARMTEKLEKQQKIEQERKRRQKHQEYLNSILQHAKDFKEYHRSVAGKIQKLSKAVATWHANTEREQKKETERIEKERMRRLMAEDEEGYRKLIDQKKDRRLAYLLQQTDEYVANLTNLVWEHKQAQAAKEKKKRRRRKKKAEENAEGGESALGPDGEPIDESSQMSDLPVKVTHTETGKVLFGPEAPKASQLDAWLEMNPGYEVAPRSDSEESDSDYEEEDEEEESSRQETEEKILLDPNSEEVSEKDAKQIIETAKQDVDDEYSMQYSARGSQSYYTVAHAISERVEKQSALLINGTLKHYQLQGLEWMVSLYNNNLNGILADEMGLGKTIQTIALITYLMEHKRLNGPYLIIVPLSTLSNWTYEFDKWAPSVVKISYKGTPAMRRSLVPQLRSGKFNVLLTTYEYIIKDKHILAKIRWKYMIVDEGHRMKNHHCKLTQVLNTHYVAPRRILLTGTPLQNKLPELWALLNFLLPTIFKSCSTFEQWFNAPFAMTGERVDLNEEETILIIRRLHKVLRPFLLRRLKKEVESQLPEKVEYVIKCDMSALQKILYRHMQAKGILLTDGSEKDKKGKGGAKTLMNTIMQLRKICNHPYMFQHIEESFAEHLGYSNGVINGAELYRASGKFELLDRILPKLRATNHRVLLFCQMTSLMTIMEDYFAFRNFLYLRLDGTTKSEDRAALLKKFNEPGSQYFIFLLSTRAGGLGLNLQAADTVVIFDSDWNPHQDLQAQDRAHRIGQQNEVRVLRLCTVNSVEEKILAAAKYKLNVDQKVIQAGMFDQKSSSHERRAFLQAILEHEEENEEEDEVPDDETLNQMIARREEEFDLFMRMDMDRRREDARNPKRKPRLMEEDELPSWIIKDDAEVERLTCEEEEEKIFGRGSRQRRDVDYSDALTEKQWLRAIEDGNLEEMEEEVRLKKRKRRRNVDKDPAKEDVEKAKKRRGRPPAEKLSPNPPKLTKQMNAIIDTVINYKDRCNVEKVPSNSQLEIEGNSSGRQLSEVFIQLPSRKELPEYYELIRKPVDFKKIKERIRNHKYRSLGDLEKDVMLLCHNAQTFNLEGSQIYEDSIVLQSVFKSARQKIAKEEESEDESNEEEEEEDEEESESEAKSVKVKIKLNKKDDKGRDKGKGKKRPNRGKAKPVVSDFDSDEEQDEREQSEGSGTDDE

This assay addresses T1, SMARCA2 (Homo sapiens, UniProt P51531).
T1 construct: fused on or other part: His tag (6His), detected by the anti-6His terbium cryptate antibody
The assay can be described thus: SMARCA2 HTRF assay. The conditions noted are these: His-tagged SMARCA2-17, average, read-out: SMARCA2 binding Human HTRF: Average IC50. The method, then: Sample handling: 1× Epigenetics Buffer is prepared according to manufacturer's instructions. 32 nM SMARCA2-17 (4×) is prepared with Epigenetics Buffer. 4×Tb working solution is prepared by diluting Mab Anti 6His Tb cryptate Gold in PPI-Terbium Detection buffer to 0.21 ng/μ1 (100× dilution from stock). SMARCA2-mAb-Tb working solution is prepared by mixing equal volume of 32 nM SMARCA2 with Tb working solution. A half-hour timer is started. In a 96-well plate, serial dilution of compound DMSO solutions is prepared. […] of Epigenetics Buffer is placed to a second 96-well plate. 1 μl of the 100× compound DMSO solution is transferred to the second 96-well plate to make 4× compound working solution. 5 μl/well of 4× compound working solution is added into the 384-well plate and mixed well. […] of SMARCA2-mAb-Tb working solution is added into 384-well plate. The above mixtures are incubated at room temperature for 30 min. Data is collected and processed on EnVision. 520 nm/495 nm readouts ratio are calculated from raw data.
The letter codes for SMARCA2 average IC50 (μM) include: A (<1 μM), B (1-50 μM), C (51-200 μM), and D (>200 μM).
Background: Time-resolved FRET reads energy transfer from a long-lived donor to a nearby acceptor.
On to `O=C1NCCc2[nH]c3nnc(-c4ccccc4O)cc3c21` [I-119, 3-(2-hydroxyphenyl)-6,7,8,9-tetrahydro-5H-pyrido[3′,4′:4,5]pyrrolo[2,3-c]pyridazin-5-one], for which the IC50 – broadly, the concentration that inhibits the measured activity by half – is 1 to 50 µM. For `CC(=O)n1ncc2c(-c3cnn(C)c3)c(N)ncc21` [I-126, 1-[5-amino-4-(1-methylpyrazol-4-yl)pyrazolo[3,4-c]pyridine-1-yl]ethanone] the value was greater than 200 µM; for `Nc1ncc(N2CCNCC2=O)cc1N1CCNCC1` [I-73, 1-(6-amino-5-piperazin-1-yl-3-pyridyl)piperazin-2-one], greater than 200 µM; for `Oc1ccccc1-c1cc2c(nn1)[nH]c1ccc(C3CCNCC3)cc12` [I-114, 2-(6-(piperidin-4-yl)-9H-pyridazino[3,4-b]indol-3-yl)phenol], less than 1 µM. On to `Nc1ncc(N2C(=O)CCC2=O)cc1N1CCNCC1` [I-70, 1-(6-amino-5-(piperazin-1-yl)pyridin-3-yl)pyrrolidine-2,5-dione], for which the half-maximal inhibitory concentration (IC50) was greater than 200 µM. For `Oc1ccccc1-c1cc2c(nn1)NCC1CNCCN21` (centres unmarked) [I-120, 2-(6,6a,7,8,9,10-hexahydro-5H-pyrazino[1′,2′:4,5]pyrazino[2,3-c]pyridazin-2-yl)phenol 2,2,2-trifluoroacetate] the value was 1 to 50 µM. With `C[C@@H]1c2c([nH]c3nnc(-c4ccccc4O)cc23)CCN1c1ncc(C2CCNCC2)cn1` [I-112, (R)-2-(5-methyl-6-(5-(piperidin-4-yl)pyrimidin-2-yl)-6,7,8,9-tetrahydro-5H-pyrido[3′,4′:4,5]pyrrolo[2,3-c]pyridazin-3-yl)phenol], the half-inhibitory concentration (IC50) was less than 1 µM. For `C[C@@H]1c2c([nH]c3nnc(-c4ccccc4O)cc23)CCN1c1nccc(C2CCNCC2)n1` [I-110, (R)-2-(5-methyl-6-(4-(piperidin-4-yl)pyrimidin-2-yl)-6,7,8,9-tetrahydro-5H-pyrido[3′,4′:4,5]pyrrolo[2,3-c]pyridazin-3-yl)phenol] the value was less than 1 µM; for `C[C@@H]1c2c([nH]c3nnc(-c4ccccc4O)cc23)CCN1c1ncccn1` [I-116, (R)-2-(5-methyl-6-(pyrimidin-2-yl)-6,7,8,9-tetrahydro-5H-pyrido[3′,4′:4,5]pyrrolo[2,3-c]pyridazin-3-yl)phenol], less than 1 µM.

For `Nc1ncc(N2CCNC2=O)cc1N1CCNCC1` [I-71, 1-(6-amino-5-piperazin-1-yl-3-pyridyl)imidazolidin-2-one], the IC50 was greater than 200 µM.

On to `O=c1[nH]c2nnc(-c3ccccc3O)cc2n2cc(C3CCNCC3)cc12` [I-125, 2-(2-hydroxyphenyl)-8-(piperidin-4-yl)pyrrolo[1′,2′:4,5]pyrazino[2,3-c]pyridazin-6(5H)-one], for which the IC50 is 1 to 50 µM. Then `Oc1ccccc1-c1cc2c(nn1)NC[C@H]1CN(c3ncccn3)CCN21` [I-107, (S)-2-(8-(pyrimidin-2-yl)-6,6a,7,8,9,10-hexahydro-5H-pyrazino[1′,2′:4,5]pyrazino[2,3-c]pyridazin-2-yl)phenol], with less than 1 µM; and `O=C1Nc2nnc(-c3ccccc3O)cc2C12CCNCC2` [I-7, 3-(2-hydroxyphenyl)spiro[7H-pyrrolo[2,3-c]pyridazine-5,4′-piperidine]-6-one], with greater than 200 µM; and `Oc1ccccc1-c1cc2c(nn1)NC[C@@H]1CN(c3ncccn3)CCN21` [I-106, (R)-2-(8-(pyrimidin-2-yl)-6,6a,7,8,9,10-hexahydro-5H-pyrazino[1′,2′:4,5]pyrazino[2,3-c]pyridazin-2-yl)phenol], with less than 1 µM. In the case of `CC(=O)Nc1cnc(N)c(-c2cnn(C)c2)c1C` [I-129, N-[6-amino-4-methyl-5-(1-methylpyrazol-4-yl)-3-pyridyl]acetamide], the IC50 was greater than 200 µM. Then `C[C@H]1NCCc2[nH]c3nnc(-c4ccccc4O)cc3c21` [I-115, (R)-2-(5-methyl-6,7,8,9-tetrahydro-5H-pyrido[3′,4′:4,5]pyrrolo[2,3-c]pyridazin-3-yl)phenol], with 51 to 200 µM; and `CC(C)(C)OC(=O)N1CC=C(c2cc3c(=O)[nH]c4nnc(-c5ccccc5O)cc4n3c2)CC1` [I-124, tert-butyl 4-(2-(2-hydroxyphenyl)-6-oxo-5,6-dihydropyrrolo[1′,2′:4,5]pyrazino[2,3-c]pyridazin-8-yl)-5,6-dihydropyridine-1(2H)-carboxylate], with 1 to 50 µM. Then `C[C@H]1c2c([nH]c3nnc(-c4ccccc4O)cc23)CCN1c1ncc(C2CCNCC2)cn1` [I-113, (S)-2-(5-methyl-6-(5-(piperidin-4-yl)pyrimidin-2-yl)-6,7,8,9-tetrahydro-5H-pyrido[3′,4′:4,5]pyrrolo[2,3-c]pyridazin-3-yl)phenol], with less than 1 µM. Then `O=C1Nc2nnc(-c3ccccc3O)cc2C12CCN(c1ccccc1)CC2` [I-64, 3-(2-hydroxyphenyl)-1′-phenyl-spiro [7H-pyrrolo[2,3-c]pyridazine-5,4′-piperidine]-6-one], with 1 to 50 µM; and `COCCNc1nnc(-c2ccccc2O)cc1N1CCNCC1` [I-101, 2-[6-(2-methoxyethylamino)-5-piperazin-1-yl-pyridazin-3-yl]phenol], with greater than 200 µM; and `C[C@@H]1NCCc2[nH]c3nnc(-c4ccccc4O)cc3c21` [I-117], with 51 to 200 µM. For `Oc1ccccc1-c1cc2c(nn1)NC[C@H]1CNCCN21` [I-108, (R)-2-(6,6a,7,8,9,10-hexahydro-5H-pyrazino[1′,2′:4,5]pyrazino[2,3-c]pyridazin-2-yl)phenol], the IC50 lay in the range of 1 to 50 µM. As for `O=c1[nH]c2nnc(-c3ccccc3O)cc2c2c1CCNC2` [I-1, 9-(2-hydroxyphenyl)-1,2,3,4-tetrahydropyridazino[3,4-c][2,6]naphthyridin-5(6H)-one hydrochloride], the half-inhibitory concentration (IC50) lay in the range of 1 to 50 µM. With `C[C@H]1c2c([nH]c3nnc(-c4ccccc4O)cc23)CCN1c1nccc(C2CCNCC2)n1` [I-111, (S)-2-(5-methyl-6-(4-(piperidin-4-yl)pyrimidin-2-yl)-6,7,8,9-tetrahydro-5H-pyrido[3′,4′:4,5]pyrrolo[2,3-c]pyridazin-3-yl)phenol], the half-maximal inhibitory concentration (IC50) was less than 1 µM. For `Nc1ncc2c(Cl)cccc2c1N1CCNCC1` [I-74, 8-chloro-4-(piperazin-1-yl)isoquinolin-3-amine] the value was greater than 200 µM; for `CC(=O)Nc1nnc(-c2ccccc2O)cc1N1CCNCC1` [I-102, N-[6-(2-hydroxyphenyl)-4-piperazin-1-yl-pyridazin-3-yl]acetamide], 51 to 200 µM; for `C[C@H]1c2c([nH]c3nnc(-c4ccccc4O)cc23)CCN1c1ncccn1` [I-118, (S)-2-(5-methyl-6-(pyrimidin-2-yl)-6,7,8,9-tetrahydro-5H-pyrido[3′,4′:4,5]pyrrolo[2,3-c]pyridazin-3-yl)phenol], less than 1 µM. `O=C1Nc2nnc(-c3ccccc3O)cc2C12CCN(Cc1ccccc1)CC2` [I-121, 1′-benzyl-3-(2-hydroxyphenyl)spiro[7H-pyrrolo[2,3-c]pyridazine-5,4′-piperidine]-6-one]: the IC50 was 1 to 50 µM.

Consider `Oc1ccccc1-c1cc2c(cc3n2CCN(c2ncccn2)C3)nn1` [I-123, 2-(8-(pyrimidin-2-yl)-6,7,8,9-tetrahydropyrazino[1′,2′:1,5]pyrrolo[3,2-c]pyridazin-3-yl)phenol], for which the IC50 lay within 1 to 50 µM.

As for `O=c1[nH]c2nnc(-c3ccccc3O)cc2c2c1CNCC2` [I-2, 2-(2-hydroxyphenyl)-7,8,9,10-tetrahydro-5H-pyridazino[3,4-c][2,7]naphthyridin-6-one], the IC50 lay in the range of 1 to 50 µM. In the case of `Oc1ccccc1-c1cc(N2CCNCC2)c(NC2COC2)nn1` [I-128, 2-[6-(oxetan-3-ylamino)-5-piperazin-1-yl-pyridazin-3-yl]phenol], the half-inhibitory concentration (IC50) was 51 to 200 µM. As to `Oc1ccccc1-c1ccc(NC2CCNCC2)nn1` [I-127, 2-[6-(4-piperidylamino)pyridazin-3-yl]phenol], the IC50 fell in the range of 1 to 50 µM.

Values taken from patent US12569485B2, “SMARCA inhibitors and uses thereof” (Kymera Therapeutics, Inc., priority 2019, dated 2026).
